A short description of data set [1]: PK protocol, intravenous administration. Type of data set: in vivo, male Sprague Dawley rats. Particulars: male, Sprague Dawley, plasma, rat; for Vd: read-out: Vdss. The protocol: Pharmacokinetic parameters were determined in male Sprague Dawley rats (Charles River, UK, 250-350 g; or Vital River Laboratory Animal Technology Co Ltd, Beijing, China, 7-9 weeks old). Animals were individually housed during the study and maintained under a 12 h light/dark cycle. Animals had free access to food and water.
For intravenous administration, compounds were formulated as a solution in water or DMSO:PBS [10:90] in 2 mL/kg dosing volume and administered via tail vein. For oral administration, compounds were formulated as a solution in DMSO:water [10:90] in 5 mL/kg dosing volume and administered orally.
Serial blood samples (about 120-300 μL) were taken from each animal at each of 8 time-points post dose (0.083, 0.25, 0.5, 1, 2, 4, 8 and 24 h) or at each of 12 time-points post dose (0.03, 0.1, 0.17, 0.25, 0.5, 1, 2, 4, 6, 8, 12 and 24 h) or pre-dose and at each of 9 time-points post dose (0.25, 0.5, 1, 2, 4, 6, 8, 12 and 24 h). Samples were held on ice for no longer than 30 minutes before centrifugation (10,000 rpm (8,385 g) for 3 minutes; or 5,696 rpm (3,000 g) for 15 minutes) for plasma generation. Plasma was frozen on dry ice prior to bioanalysis. PK parameters were generated from LC-MS/MS data using Dotmatics or Phoenix WinNonlin 6.3 software.

The target in data set [2] is T1, NLRP3 (Homo sapiens, UniProt Q96P20). The experiment in a line: THP-1 cells pyroptosis assay (LPS + nigericin, resazurin readout; THP IC50). Type of data set: cell-based. On the set-up: Seed THP-1 cells (25,000 cells/well) containing 1.0 μg/ml LPS in 40 μl of RPMI medium; host or cells: THP-1 cells. Summed up:
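Human THP-1 cells, 25,000/well in serum-free RPMI with 1 μg/ml LPS, treated 3 hrs at 37° C with compound (8-point half-log, 10 μM top, 0.1% DMSO), then 5 μM nigericin 1 hr. Viability by 100 μM resazurin fluorescence after 1-2 hrs; IC50 by 4-parameter fit.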
Background: Resazurin is reduced to fluorescent resorufin, in cell work by metabolically active cells.

Data set [3] addresses T1, NLRP3. Kind of data set: Human whole blood IL1β release assay (LPS + nigericin, AlphaLisa IL-1β; HWB IC50). Type of data set: cell-based. Also on record: Human whole blood in Li-heparin tubes was obtained from healthy donors from a volunteer donor panel; from tissue; host or cells: human whole blood from healthy donors. Particulars: IL-1β release. Summed up:
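Donor Li-heparin whole blood primed with 1 μg/ml LPS, given compound (8-point half-log series, 10 μM top; DMSO 0.1% final) for 3 h at 37 °C, then nigericin 10 μM final for 1 h. Supernatant IL-1β measured by AlphaLisa; IC50 from 4-parameter variable-slope fit.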
(In general: Alpha assays give light when donor and acceptor beads are brought close together.)

Where a name gives a salt, the structure may show the parent alone. Read-outs that look alike come from different tables or passages of the source. A value given as a limit tells only on which side of the number the result lay.

T1 sequence (Q96P20 whole entry): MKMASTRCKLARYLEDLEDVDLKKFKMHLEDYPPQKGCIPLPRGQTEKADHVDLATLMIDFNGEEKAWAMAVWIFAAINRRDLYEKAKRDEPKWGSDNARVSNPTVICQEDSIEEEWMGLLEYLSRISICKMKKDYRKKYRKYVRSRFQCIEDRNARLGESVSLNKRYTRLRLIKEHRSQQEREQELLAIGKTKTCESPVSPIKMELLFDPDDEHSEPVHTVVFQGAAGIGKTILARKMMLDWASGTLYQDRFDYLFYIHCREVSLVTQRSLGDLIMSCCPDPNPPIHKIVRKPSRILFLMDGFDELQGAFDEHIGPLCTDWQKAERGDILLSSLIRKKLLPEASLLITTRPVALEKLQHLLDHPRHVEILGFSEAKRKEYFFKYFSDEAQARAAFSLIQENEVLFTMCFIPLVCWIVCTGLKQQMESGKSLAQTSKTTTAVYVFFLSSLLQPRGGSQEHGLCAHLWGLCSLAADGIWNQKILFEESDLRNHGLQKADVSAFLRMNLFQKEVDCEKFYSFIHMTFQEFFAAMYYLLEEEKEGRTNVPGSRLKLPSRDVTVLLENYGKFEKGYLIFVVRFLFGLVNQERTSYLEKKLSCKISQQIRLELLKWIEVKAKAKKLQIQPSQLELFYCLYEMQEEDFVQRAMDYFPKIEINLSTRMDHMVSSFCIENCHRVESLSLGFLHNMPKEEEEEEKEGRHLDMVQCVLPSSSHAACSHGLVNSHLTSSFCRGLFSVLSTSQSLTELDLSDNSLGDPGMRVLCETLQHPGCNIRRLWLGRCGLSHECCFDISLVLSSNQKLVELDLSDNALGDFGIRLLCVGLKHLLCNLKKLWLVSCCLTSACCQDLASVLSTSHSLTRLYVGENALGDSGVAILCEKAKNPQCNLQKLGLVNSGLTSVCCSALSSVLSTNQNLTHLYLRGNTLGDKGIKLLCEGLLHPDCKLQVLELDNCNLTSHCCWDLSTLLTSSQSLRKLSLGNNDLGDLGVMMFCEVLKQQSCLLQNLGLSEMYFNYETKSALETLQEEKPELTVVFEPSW

The term AUC denotes concentration integrated over time. The term clearance denotes the rate of elimination divided by the concentration. Higher therefore signals efficient removal. As usually defined, the half-life is how long it takes for the measured level to halve. Read a low half-life as rapid decline. A word on the IC50: it is the midpoint of a concentration-inhibition curve. On to `CC(C)c1cc(F)cc(-c2cccnc2)c1NC(=O)NS(=O)(=O)c1ccn(C(C)C)n1` [Example 1, N-((4-Fluoro-2-iso-propyl-6-(pyridin-3-yl)phenyl)carbamoyl)-1-iso-propyl-1H-pyrazole-3-sulfonamide], for which, in data set [1] (dose 1 mg/kg), the AUC is 341 ng·h/mL, the clearance was determined as 49.1 mL/min/kg, the half-life is 3.3 h and the Vd was determined as 4.49 L/kg. Moreover, the concentration for half-maximal inhibition (IC50) in data set [2] is no more than 500 nM. In addition, the IC50 in data set [3] is no more than 500 nM.
As for `CC(C)c1cc(F)cc(-c2ccncc2)c1NC(=O)NS(=O)(=O)c1ccn(C(C)C)n1` [Example 10, N-((4-Fluoro-2-iso-propyl-6-(pyridin-4-yl)phenyl)carbamoyl)-1-iso-propyl-1H-pyrazole-3-sulfonamide, partial ammonium salt], in data set [1] (dose 1.98 mg/kg), the exposure (AUC) worked out at 806 ng·h/mL, the clearance came to 40.9 mL/min/kg, the half-life is 3.8 h and the Vd came to 7.14 L/kg. Besides, the IC50 in data set [2] is no more than 500 nM. Further, the IC50 in data set [3] was no more than 500 nM.
Regarding `CC(C)c1cc(F)cc(-c2ccnc(O)c2)c1NC(=O)NS(=O)(=O)c1ccn(C(C)C)n1` [Example 25, N-((4-Fluoro-2-(2-hydroxypyridin-4-yl)-6-iso-propylphenyl)carbamoyl)-1-iso-propyl-1H-pyrazole-3-sulfonamide], in data set [1] (dose 1 mg/kg), the AUC was 412 ng·h/mL, the clearance amounted to 41.9 mL/min/kg, the half-life was 0.4 h and the Vd was determined as 0.41 L/kg. In addition, the IC50 in data set [2] was no more than 500 nM. In addition, the IC50 in data set [3] was no more than 500 nM.
With `CC(C)c1cc(F)cc(-c2ccnc(C#N)c2)c1NC(=O)NS(=O)(=O)c1ccn(C(C)C)n1` [Example 28, N-((2-(2-Cyanopyridin-4-yl)-4-fluoro-6-iso-propylphenyl)carbamoyl)-1-iso-propyl-1H-pyrazole-3-sulfonamide], in data set [1] (dose 1 mg/kg), the AUC was 386 ng·h/mL, the clearance is 43.3 mL/min/kg, the half-life is 1.2 h and the Vd worked out at 1.07 L/kg. Besides, the IC50 in data set [2] is no more than 500 nM. Moreover, the IC50 in data set [3] was no more than 500 nM.
As to `CC(C)c1cc(F)cc(C2CCOCC2)c1NC(=O)NS(=O)(=O)c1cc(C(=O)N(C)C)n(C)n1` [Example 30, 3-(N-((4-Fluoro-2-iso-propyl-6-(tetrahydro-2H-pyran-4-yl)phenyl)carbamoyl)sulfamoyl)-N,N,1-trimethyl-1H-pyrazole-5-carboxamide, sodium salt], in data set [1] (dose 1 mg/kg), the AUC was 182 ng·h/mL, the clearance was 91.3 mL/min/kg, the half-life was 2.3 h and the Vd stood at 2.72 L/kg. Moreover, the IC50 in data set [2] was no more than 5000 nM. Moreover, the IC50 in data set [3] was no more than 500 nM.
With `CC(C)c1cc(F)cc(-c2cccnc2)c1NC(=O)NS(=O)(=O)c1cc(C(=O)N(C)C)n(C)n1` [Example 33, 3-(N-((4-Fluoro-2-iso-propyl-6-(pyridin-3-yl)phenyl)carbamoyl)sulfamoyl)-N,N,1-trimethyl-1H-pyrazole-5-carboxamide, sodium salt], in data set [1] (dose 1 mg/kg), the AUC stood at 274 ng·h/mL, the clearance came out at 60.7 mL/min/kg, the half-life is 6.3 h and the Vd came to 3.95 L/kg. Besides, in data set [2], the IC50 was no more than 500 nM. In data set [3], the concentration for half-maximal inhibition (IC50) was no more than 500 nM.
Consider `CC(C)c1cc(F)cc(-c2cnn(C)c2)c1NC(=O)NS(=O)(=O)c1cc(C(=O)N(C)C)n(C)n1` [Example 34, 3-(N-((4-Fluoro-2-iso-propyl-6-(1-methyl-1H-pyrazol-4-yl)phenyl)carbamoyl)sulfamoyl)-N,N,1-trimethyl-1H-pyrazole-5-carboxamide, sodium salt], for which, in data set [1] (dose 1 mg/kg), the AUC was 661 ng·h/mL, the clearance was found to be 25.2 mL/min/kg, the half-life was 12.1 h and the Vd was 3.03 L/kg. In addition, the IC50 in data set [2] is no more than 1000 nM. For the same compound, the IC50 in data set [3] is no more than 500 nM.
For the compound `COc1cc(-c2cc(F)cc(C(C)C)c2NC(=O)NS(=O)(=O)c2cc(CN(C)C)n(C)n2)ccn1` [Example 36, 5-((Dimethylamino)methyl)-N-((4-fluoro-2-iso-propyl-6-(2-methoxypyridin-4-yl)phenyl)carbamoyl)-1-methyl-1H-pyrazole-3-sulfonamide], in data set [1] (dose 1 mg/kg), the area under the curve (AUC) was 356 ng·h/mL, the clearance is 47.6 mL/min/kg, the half-life was 0.5 h and the Vd worked out at 0.8 L/kg. Moreover, the IC50 in data set [2] was no more than 500 nM. For the same compound, in data set [3], the IC50 is no more than 500 nM.
Turning to `COc1cc(-c2cc(F)cc(C(C)C)c2NC(=O)NS(=O)(=O)c2cc(CN(C)C)n(C(C)C)n2)ccn1` [Example 37, 5-((Dimethylamino)methyl)-N-((4-fluoro-2-iso-propyl-6-(2-methoxypyridin-4-yl)phenyl)carbamoyl)-1-iso-propyl-1H-pyrazole-3-sulfonamide], in data set [1] (dose 1 mg/kg), the AUC came out at 248 ng·h/mL, the clearance came to 67.2 mL/min/kg, the half-life is 0.3 h and the Vd is 1.32 L/kg. Also, in data set [2], the IC50 was no more than 500 nM. For the same compound, the IC50 in data set [3] was no more than 500 nM.
Turning to `CC(C)c1cc(F)cc(-c2cccc(C#N)c2)c1NC(=O)NS(=O)(=O)c1cc(CN(C)C)n(C)n1` [Example 38, N-((3′-Cyano-5-fluoro-3-iso-propyl-[1,1′-biphenyl]-2-yl)carbamoyl)-5-((dimethylamino)methyl)-1-methyl-1H-pyrazole-3-sulfonamide], in data set [1] (dose 1 mg/kg), the AUC stood at 375 ng·h/mL, the clearance is 51.5 mL/min/kg, the half-life is 1.2 h and the Vd worked out at 1.14 L/kg. The IC50 in data set [2] was no more than 500 nM. Also, the 50% inhibitory concentration (IC50) in data set [3] is no more than 500 nM.
As for `CC(C)c1cc(F)cc(-c2cccnc2)c1NC(=O)NS(=O)(=O)c1cc(CN(C)C)n(C)n1` [Example 44, 5-((Dimethylamino)methyl)-N-((4-fluoro-2-isopropyl-6-(pyridin-3-yl)phenyl)carbamoyl)-1-methyl-1H-pyrazole-3-sulfonamide], in data set [1] (dose 1 mg/kg), the exposure (AUC) was determined as 259 ng·h/mL, the clearance was determined as 64.9 mL/min/kg, the half-life was 0.5 h and the Vd is 0.75 L/kg. In data set [2], the IC50 is no more than 500 nM. Moreover, the IC50 in data set [3] was no more than 500 nM.
With `Cc1cc(-c2cc(F)cc(C(C)C)c2NC(=O)NS(=O)(=O)c2cc(CN(C)C)n(C)n2)n(C)n1` [Example 45], in data set [1] (dose 1 mg/kg), the AUC was found to be 259 ng·h/mL, the clearance worked out at 65.6 mL/min/kg, the half-life was 0.5 h and the Vd is 0.98 L/kg. For the same compound, in data set [2], the IC50 is no more than 500 nM. Moreover, the IC50 in data set [3] is no more than 500 nM.
Regarding `CC#Cc1cc(-c2cc(F)cc(C(C)C)c2NC(=O)NS(=O)(=O)c2ccn(C(C)C)n2)ccn1` [Example 51, N-((4-Fluoro-2-isopropyl-6-(2-(prop-1-yn-1-yl)pyridin-4-yl)phenyl)carbamoyl)-1-isopropyl-1H-pyrazole-3-sulfonamide], in data set [1] (dose 1 mg/kg), the AUC was 600 ng·h/mL, the clearance turned out to be 27.8 mL/min/kg, the half-life was 3.7 h and the Vd came out at 3.68 L/kg. For the same compound, the IC50 in data set [2] was no more than 500 nM. Moreover, the IC50 in data set [3] is no more than 500 nM.
As to `CC(C)c1cc(F)cc(-c2ccnc(C#N)c2)c1NC(=O)NS(=O)(=O)c1cn(C(C)C)cn1` [Example 54, N-((2-(2-Cyanopyridin-4-yl)-4-fluoro-6-isopropylphenyl)carbamoyl)-1-isopropyl-1H-imidazole-4-sulfonamide], in data set [1] (dose 1 mg/kg), the AUC is 200 ng·h/mL, the clearance was 85.4 mL/min/kg, the half-life is 1.6 h and the Vd turned out to be 2.5 L/kg. In data set [2], the IC50 was no more than 500 nM. In addition, the IC50 in data set [3] is no more than 500 nM.
With `COc1cc(-c2cc(F)cc(C(C)C)c2NC(=O)NS(=O)(=O)c2cncc(N(C)C)n2)ccn1` [Example 103, 6-(Dimethylamino)-N-((4-fluoro-2-isopropyl-6-(2-methoxypyridin-4-yl)phenyl)carbamoyl)pyrazine-2-sulfonamide], in data set [1] (dose 1 mg/kg), the AUC amounted to 346 ng·h/mL, the clearance stood at 48.1 mL/min/kg, the half-life is 2.2 h and the Vd is 1.77 L/kg. Further, the IC50 in data set [2] was no more than 500 nM.
Regarding `COc1cc(-c2ccc3c(c2NC(=O)NS(=O)(=O)c2cncc(N(C)C)n2)CCC3)ccn1` [Example 104, 6-(Dimethylamino)-N-((5-(2-methoxypyridin-4-yl)-2,3-dihydro-1H-inden-4-yl)carbamoyl)pyrazine-2-sulfonamide], in data set [1] (dose 1 mg/kg), the AUC came out at 841 ng·h/mL, the clearance came out at 19.8 mL/min/kg, the half-life is 1.2 h and the Vd was 1.04 L/kg. For the same compound, in data set [2], the IC50 is no more than 500 nM.

These data come from US20200361895A1, “NOVEL SULFONAMIDE CARBOXAMIDE COMPOUNDS” (Inflazome Limited, priority 2017, published 2020).
